Results reported in patent US6479437B1, “Herbicidal mixture containing a 3-heterocyclyl-substituted benzoyl derivative” (priority 1998, dated 2002).

Assays:
Type in all cases: in vivo
Conditions in all cases: adjuvant 0.25 and ENSOL 28 0.375 kg/ha where added, scale 0-100
ZEAMX (Zea mays, corn) = assay: Selective herbicidal activity post-emergence in the greenhouse (crop phytotoxicity)
Protocol: (§1) The culture containers used were plastic pots containing loamy sand with approximately 3.0% of humus as substrate. The seeds of the test plants were sown separately for each species.
(§2) For the post-emergence treatment, the test plants were grown to a plant height of from 3 to 15 cm, depending on the plant habit, and only then treated with the herbicidal mixture which had been suspended or emulsified in water. To this end, the test plants were either sown directly and grown in the same containers, or they were first grown separately as seedlings and transplanted into the test containers a few days prior to treatment.
(§3) Depending on the species, the plants were kept at 10-25° C. or 20-35° C. The test period extended over 2 to 4 weeks. During this time, the plants were tended, and their response to the individual treatments was evaluated.
(§4) Evaluation was carried out using a scale of from 0 to 100. 100 means no emergence of the plants, or complete destruction of at least the aerial parts, and 0 means no damage or normal course of growth.

[1] = tested on: POLPE (Polygonum persicaria, lady's thumb); assay: Selective herbicidal activity post-emergence in the greenhouse
Protocol: as §1, §2, §3, §4

[2] = tested on: ABUTH (Abutilon theophrasti, velvetleaf); assay: as above
Protocol: as §1, §2, §3, §4

[3] = tested on: CHEAL (Chenopodium album, lambsquarters); assay: as above
Protocol: as §1, §2, §3, §4

[4] = tested on: SETVI (Setaria viridis, green foxtail); assay: as above
Protocol: as §1, §2, §3, §4

[5] = tested on: ECHCG (Echinochloa crus-galli, barnyardgrass); assay: as above
Protocol: as §1, §2, §3, §4

[6] = Table 1, EX. 1 0.0078 kg/ha a.s.
[7] = Table 2, EX. 1 0.0625 kg/ha a.s.
[8] = Table 8, EX. 1 0.0625 kg/ha a.s.
[9] = Table 20, EX. 1 0.0078 kg/ha a.s.
[10] = Table 17, EX. 1 0.0078 kg/ha a.s.
[11] = Table 19, EX. 1 0.0078 kg/ha a.s.
[12] = Table 21, EX. 1 0.0078 kg/ha a.s.
[13] = Table 5, EX. 1 0.0312 kg/ha a.s.
[14] = Table 11, EX. 1 0.0078 kg/ha a.s.

Cn1ncc(C(=O)c2ccc(S(C)(=O)=O)c(C3=NOCC3)c2Cl)c1O [EX. 1]
Phytotoxicity ZEAMX (ZEAMX (Zea mays, corn); [6]): 0 | Phytotoxicity ZEAMX (ZEAMX (Zea mays, corn); [7]): 0 | Phytotoxicity ZEAMX (ZEAMX (Zea mays, corn); [8]): 0 | Phytotoxicity ZEAMX (ZEAMX (Zea mays, corn); [9]): 0 | Phytotoxicity POLPE [1, 10]: 20 | Phytotoxicity POLPE ([1]; Table 18, EX. 1 0.0078 kg/ha a.s.): 70 | Phytotoxicity POLPE [1, 11]: 70 | Phytotoxicity POLPE [1, 12]: 70 | Phytotoxicity ABUTH ([2]; Table 4, EX. 1 0.0156 kg/ha a.s.): 20 | Phytotoxicity ABUTH [2, 13]: 75 | Phytotoxicity ABUTH ([2]; Table 16, EX. 1 0.0156 kg/ha a.s.): 20 | Phytotoxicity CHEAL [3, 6]: 20 | Phytotoxicity CHEAL [3, 7]: 50 | Phytotoxicity CHEAL ([3]; Table 6, EX. 1 0.0078 kg/ha a.s.): 20 | Phytotoxicity CHEAL ([3]; Table 7, EX. 1 0.0156 kg/ha a.s.): 20 | Phytotoxicity CHEAL ([3]; Table 10, EX. 1 0.0078 kg/ha a.s.): 20 | Phytotoxicity CHEAL [3, 14]: 20 | Phytotoxicity CHEAL ([3]; Table 12, EX. 1 0.0156 kg/ha a.s.): 20 | Phytotoxicity CHEAL ([3]; Table 13, EX. 1 0.0156 kg/ha a.s.): 20 | Phytotoxicity CHEAL ([3]; Table 14, EX. 1 0.0156 kg/ha a.s.): 20 | Phytotoxicity SETVI [4, 14]: 30 | Phytotoxicity SETVI [4, 10]: 30 | Phytotoxicity SETVI [4, 11]: 40 | Phytotoxicity SETVI [4, 9]: 40 | Phytotoxicity SETVI [4, 12]: 40 | Phytotoxicity ECHCG ([5]; Table 3, EX. 1 0.0625 kg/ha a.s.): 50 | Phytotoxicity ECHCG [5, 13]: 030 | Phytotoxicity ECHCG [5, 8]: 50 | Phytotoxicity ECHCG ([5]; Table 9, EX. 1 0.0625 kg/ha a.s.): 50 | Phytotoxicity ECHCG ([5]; Table 15, EX. 1 0.0625 kg/ha a.s.): 50
